ChEMBL document CHEMBL1148105, “Bioactive metabolites from a marine-derived strain of the fungus Emericella variecolor” (2002)
Values after ≈ are worked out from the molar mass of the structure shown.

Columns and labels:
Type in all cases: functional
Enterococcus faecalis = test: Antimicrobial activity against Enterococcus faecalis
Bacillus subtilis = test: Antimicrobial activity against Bacillus subtilis
Staphylococcus aureus = test: Antimicrobial activity against Staphylococcus aureus
Escherichia coli = test: Antimicrobial activity against Escherichia coli
Proteus sp. = test: Antimicrobial activity against Proteus sp.; conditions: Proteus sp. (in: enterobacteria)

- MIC (Enterococcus faecalis): 50 µg/mL (≈ 107 µM)
- MIC (Bacillus subtilis): 12.5 µg/mL (≈ 26.7 µM)
- MIC (Staphylococcus aureus): 12.5 µg/mL (≈ 26.7 µM)
- MIC (Escherichia coli): 12.5 µg/mL (≈ 26.7 µM)
- MIC (Proteus sp.): 12.5 µg/mL (≈ 26.7 µM)
Compound: C=C(C)[C@H]1COc2c(C)cc3oc4c(C[C@H](OC=O)C(C)(C)O)ccc(O)c4c(=O)c3c2[C@@H]1O [VARIXANTHONE]
